Starred links: 1 amine or outer side, 2 acyl side, 3 side chain; linkers in the order of their positions; H or OH if unused. Positions of bridges follow the written chain, without caps; N, C: chain ends. Non-standard residues stand in square brackets, D forms with d. Residues, ends and D or L forms follow the SMILES beside them. *: point of attachment. Phe(4-guanidino) = N=C(N)Nc1ccc(C[C@H](N)C(=O)O)cc1; Phe(3-Cl) = N[C@@H](Cc1cccc(Cl)c1)C(=O)O; Phe(3-OMe) = COc1cccc(C[C@H](N)C(=O)O)c1; Phe(3-F) = N[C@@H](Cc1cccc(F)c1)C(=O)O; Phe(4-F) = N[C@@H](Cc1ccc(F)cc1)C(=O)O; X5 = CCN(CC)CCC[C@H](N[*:1])C(=O)[*:2]; dPhe(2-Me) = Cc1ccccc1C[C@@H](N)C(=O)O; Phe(2-F) = N[C@@H](Cc1ccccc1F)C(=O)O; Bta = N[C@@H](Cc1csc2ccccc12)C(=O)O; d(hCha) = N[C@H](CCC1CCCCC1)C(=O)O; Hydrocinnamoyl = O=C(CCc1ccccc1)*; Hyp = O=C(O)[C@@H]1C[C@@H](O)CN1; NMeF = CN[C@@H](Cc1ccccc1)C(=O)O; d(hLeu) = CC(C)CC[C@@H](N)C(=O)O; 2Thi = N[C@@H](Cc1cccs1)C(=O)O; Cit = NC(=O)NCCC[C@H](N)C(=O)O; dCha = N[C@H](CC1CCCCC1)C(=O)O; dChg = N[C@@H](C(=O)O)C1CCCCC1; Nle = CCCC[C@H](N)C(=O)O; Orn = NCCC[C@H](N)C(=O)O; Aze = O=C(O)[C@@H]1CCN1; Dab = NCC[C@H](N)C(=O)O; Fluoroacetyl = O=C(CF)*; NBuGly = CCCCNCC(=O)O
Target: T1, human C5aR(CD88) (Homo sapiens, UniProt P21730)
T1 construct: expressed in transfected cells; host or cells: rat basophilic leukemia cells (RBL)
T1 sequence (P21730 1-350): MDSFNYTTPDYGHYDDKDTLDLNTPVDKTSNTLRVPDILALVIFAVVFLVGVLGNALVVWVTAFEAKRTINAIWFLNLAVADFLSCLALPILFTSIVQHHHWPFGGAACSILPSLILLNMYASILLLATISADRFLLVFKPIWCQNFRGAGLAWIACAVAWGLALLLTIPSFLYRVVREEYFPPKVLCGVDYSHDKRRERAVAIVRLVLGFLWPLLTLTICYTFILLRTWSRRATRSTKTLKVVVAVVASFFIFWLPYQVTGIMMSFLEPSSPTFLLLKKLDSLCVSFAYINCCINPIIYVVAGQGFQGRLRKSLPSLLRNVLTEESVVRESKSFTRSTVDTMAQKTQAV
Assay: Determination of the IC50 value in an enzyme release assay (functional assay, antagonistic activity)
Type: cell-based
Settings: activity (group), antagonistic activity; IC50 group in enzyme release assay, RBL cells expressing human C5aR(CD88)

Row | SMILES | IC50 [nM]
1 | NCCC[C@H](NC(=O)[C@H](Cc1ccccc1)NC(=O)CF)C(=O)N1CCC[C@H]1C(=O)N[C@H](CC1CCCCC1)C(=O)N[C@@H](Cc1csc2ccccc12)C(=O)N[C@@H](Cc1ccccc1)C(N)=O [Compound 142, FH2C—CO-Phe-Orn-Pro-cha-Bta-Phe-NH2] (Fluoroacetyl-F[Orn]P[dCha][Bta]F-NH2) | 20 to 50

Same assay, conditions: antagonistic activity; IC50 group in enzyme release assay, RBL cells expressing human C5aR(CD88); read-out: activity (group)

Row | IC50 [nM] | SMILES
2 | 50 to 200 | CC(=O)N[C@@H](Cc1ccc(NC(=N)N)cc1)C(=O)N[C@@H](Cc1ccccc1)C(=O)N[C@@H](CCCN)C(=O)N1CC[C@H]1C(=O)N[C@H](CC1CCCCC1)C(=O)N[C@@H](Cc1csc2ccccc12)C(=O)N[C@@H](Cc1ccccc1)C(N)=O [Compound 140, Ac-Guf-Phe-Orn-Aze-cha-Bta-Phe-NH2] (Ac-[Phe(4-guanidino)]F[Orn][Aze][dCha][Bta]F-NH2)
3 | 50 to 200 | CC(=O)N[C@@H](CCN)C(=O)N[C@@H](Cc1ccccc1)C(=O)N[C@@H](CCCN)C(=O)N1CC[C@H]1C(=O)N[C@H](CC1CCCCC1)C(=O)N[C@@H](Cc1csc2ccccc12)C(=O)N[C@@H](Cc1ccccc1)C(N)=O [Compound 141, Ac-Dab-Phe-Orn-Aze-cha-Bta-Phe-NH2] (Ac-[Dab]F[Orn][Aze][dCha][Bta]F-NH2)
4 | 50 to 200 | CCN(CC)CCC[C@H](NC(=O)[C@H](Cc1ccccc1)NC(C)=O)C(=O)N1CCC[C@H]1C(=O)N[C@H](CC1CCCCC1)C(=O)N[C@@H](Cc1c[nH]c2ccccc12)C(=O)N[C@@H](Cc1ccccc1)C(N)=O [Compound 143, Ac-Phe-Orn(Et2)-Pro-cha-Trp-Phe-NH2] (Ac-F[X5]P[dCha]WF-NH2)
5 | 20 to 50 | CCCC[C@@H]1NC(=O)[C@H](Cc2c[nH]c3ccccc23)NC(=O)[C@@H](CC2CCCCC2)NC(=O)[C@@H]2C[C@@H](O)CN2C(=O)[C@@H](NC(=O)CCc2ccccc2)CCCNC1=O [Compound 145, 3PP-[Orn-Hyp-cha-Trp-Nle]] (Hydrocinnamoyl-[Orn][Hyp][dCha]W[Nle]; lactam 1-C)
6 | 20 to 50 | CC(=O)N[C@@H](Cc1ccccc1)C(=O)N[C@H]1CCCNC(=O)[C@H](Cc2ccc(O)cc2)NC(=O)[C@H](Cc2c[nH]c3ccccc23)NC(=O)[C@@H](CC2CCCCC2)NC(=O)[C@@H]2CCCN2C1=O [Compound 146, Ac-Phe-[Orn-Pro-cha-Trp-Tyr]] (Ac-F[Orn]P[dCha]WY; lactam 2-C)
7 | 10 to 20 | CCCC[C@@H]1NC(=O)[C@H](Cc2c[nH]c3ccccc23)NC(=O)[C@@H](Cc2ccccc2C)NC(=O)[C@@H]2CCCN2C(=O)[C@@H](NC(=O)[C@H](Cc2ccccc2)NC(C)=O)CCCNC1=O [Compound 147, Ac-Phe-[Orn-Pro-omf-Trp-Nle]] (Ac-F[Orn]P[dPhe(2-Me)]W[Nle]; lactam 2-C)
8 | 200 to 2000 | CCCCN(CC(=O)N1CCC[C@H]1C(=O)N[C@H](CC1CCCCC1)C(=O)N[C@@H](Cc1c[nH]c2ccccc12)C(=O)N[C@@H](Cc1ccccc1)C(N)=O)C(=O)[C@H](Cc1ccccc1)NC(C)=O [Compound 148, Ac-Phe-N(nBu)-CH2—CO-Pro-cha-Trp-Phe-NH2] (Ac-F[NBuGly]P[dCha]WF-NH2)
9 | 20 to 50 | CC(=O)N[C@@H](C)C(=O)N[C@@H](Cc1ccccc1)C(=O)N[C@@H](CCCN)C(=O)N1CC[C@H]1C(=O)N[C@H](CC1CCCCC1)C(=O)N[C@@H](Cc1csc2ccccc12)C(=O)N[C@@H](Cc1ccccc1)C(N)=O [Compound 151, Ac-Ala-Phe-Orn-Aze-cha-Bta-Phe-NH2] (Ac-AF[Orn][Aze][dCha][Bta]F-NH2)
10 | 20 to 50 | CC(=O)N[C@@H](CCCNC(N)=O)C(=O)N[C@@H](Cc1ccccc1)C(=O)N[C@@H](CCCN)C(=O)N1CC[C@H]1C(=O)N[C@H](CC1CCCCC1)C(=O)N[C@@H](Cc1csc2ccccc12)C(=O)N[C@@H](Cc1ccccc1)C(N)=O [Compound 153, Ac-Cit-Phe-Orn-Aze-cha-Bta-Phe-NH2] (Ac-[Cit]F[Orn][Aze][dCha][Bta]F-NH2)
11 | 10 to 20 | CC(=O)NCC(=O)N[C@@H](Cc1ccccc1)C(=O)N[C@@H](CCCN)C(=O)N1CC[C@H]1C(=O)N[C@H](CC1CCCCC1)C(=O)N[C@@H](Cc1csc2ccccc12)C(=O)N[C@@H](Cc1ccccc1)C(N)=O [Compound 154, Ac-Gly-Phe-Orn-Aze-cha-Bta-Phe-NH2] (Ac-GF[Orn][Aze][dCha][Bta]F-NH2)
12 | 50 to 200 | CC(=O)NCC(=O)N[C@@H](Cc1ccccc1)C(=O)N[C@@H](CCCN)C(=O)N1CC[C@H]1C(=O)N[C@@H](C(=O)N[C@@H](Cc1csc2ccccc12)C(=O)N[C@@H](Cc1ccccc1)C(N)=O)C1CCCCC1 [Compound 155, Ac-Gly-Phe-Orn-Aze-chg-Bta-Phe-NH2] (Ac-GF[Orn][Aze][dChg][Bta]F-NH2)
13 | 50 to 200 | CC(=O)NCC(=O)N[C@@H](Cc1ccccc1)C(=O)N[C@@H](CCCN)C(=O)N1CC[C@H]1C(=O)N[C@H](CCC1CCCCC1)C(=O)N[C@@H](Cc1csc2ccccc12)C(=O)N[C@@H](Cc1ccccc1)C(N)=O [Compound 156, Ac-Gly-Phe-Orn-Aze-hch-Bta-Phe-NH2] (Ac-GF[Orn][Aze][d(hCha)][Bta]F-NH2)
14 | 20 to 50 | CC(=O)NCC(=O)N[C@@H](Cc1cccs1)C(=O)N[C@@H](CCCN)C(=O)N1CC[C@H]1C(=O)N[C@H](CC1CCCCC1)C(=O)N[C@@H](Cc1csc2ccccc12)C(=O)N[C@@H](Cc1ccccc1)C(N)=O [Compound 157, Ac-Gly-Thi-Orn-Aze-cha-Bta-Phe-NH2] (Ac-G[2Thi][Orn][Aze][dCha][Bta]F-NH2)
15 | 20 to 50 | CC(=O)N1C[C@H](O)C[C@H]1C(=O)N[C@@H](Cc1ccccc1)C(=O)N[C@@H](CCCN)C(=O)N1CC[C@H]1C(=O)N[C@H](CC1CCCCC1)C(=O)N[C@@H](Cc1csc2ccccc12)C(=O)N[C@@H](Cc1ccccc1)C(N)=O [Compound 159, Ac-Hyp-Phe-Orn-Aze-cha-Bta-Phe-NH2] (Ac-[Hyp]F[Orn][Aze][dCha][Bta]F-NH2)
16 | 20 to 50 | CC(=O)N[C@@H](CCCCN)C(=O)N[C@@H](Cc1ccccc1)C(=O)N[C@@H](CCCN)C(=O)N1CC[C@H]1C(=O)N[C@H](CC1CCCCC1)C(=O)N[C@@H](Cc1csc2ccccc12)C(=O)N[C@@H](Cc1ccccc1)C(N)=O [Compound 160, Ac-Lys-Phe-Orn-Aze-cha-Bta-Phe-NH2] (Ac-KF[Orn][Aze][dCha][Bta]F-NH2)
17 | 50 to 200 | CC(=O)N[C@@H](Cc1cccc(F)c1)C(=O)N[C@@H](CCCN)C(=O)N1CCC[C@H]1C(=O)N[C@H](CCC(C)C)C(=O)N[C@@H](Cc1cccc(Cl)c1)C(=O)N[C@@H](Cc1cccc(F)c1)C(N)=O [Compound 163, Ac-Mff-Orn-Pro-hle-Mcf-Mff-NH2] (Ac-[Phe(3-F)][Orn]P[d(hLeu)][Phe(3-Cl)][Phe(3-F)]-NH2)
18 | 50 to 200 | COc1cccc(C[C@H](NC(C)=O)C(=O)N[C@@H](CCCN)C(=O)N2CCC[C@H]2C(=O)N[C@H](CCC(C)C)C(=O)N[C@@H](Cc2ccc(F)cc2)C(=O)N[C@@H](Cc2ccccc2)C(N)=O)c1 [Compound 164, Ac-Mmy-Orn-Pro-hle-Pff-Phe-NH2] (Ac-[Phe(3-OMe)][Orn]P[d(hLeu)][Phe(4-F)]F-NH2)
19 | 50 to 200 | CC(=O)N[C@@H](CCCN)C(=O)N[C@@H](Cc1ccccc1)C(=O)N[C@@H](CCCN)C(=O)N1CC[C@H]1C(=O)N[C@H](CC1CCCCC1)C(=O)N[C@@H](Cc1csc2ccccc12)C(=O)N[C@@H](Cc1ccccc1)C(N)=O [Compound 168, Ac-Orn-Phe-Orn-Aze-cha-Bta-Phe-NH2] (Ac-[Orn]F[Orn][Aze][dCha][Bta]F-NH2)

Row | SMILES | IC50 [nM]
20 | CCCC[C@@H]1NC(=O)[C@H](Cc2c[nH]c3ccccc23)NC(=O)[C@@H](CC2CCCCC2)NC(=O)[C@@H]2C[C@@H](O)CN2C(=O)[C@@H](NC(=O)[C@H](Cc2ccccc2)NC(C)=O)CCCNC1=O [Compound 144, Ac-Phe-[Orn-Hyp-cha-Trp-Nle]] (Ac-F[Orn][Hyp][dCha]W[Nle]; lactam 2-C) | 10 to 20
21 | CC(=O)N[C@@H](Cc1cccc(F)c1)C(=O)N[C@@H](CCCN)C(=O)N1CCC[C@H]1C(=O)N[C@H](CC1CCCCC1)C(=O)N[C@@H](Cc1csc2ccccc12)C(=O)N[C@@H](Cc1ccccc1)C(N)=O [Compound 161, Ac-Mff-Orn-Pro-cha-Bta-Phe-NH2] (Ac-[Phe(3-F)][Orn]P[dCha][Bta]F-NH2) | 50 to 200
22 | CC(=O)N[C@@H](Cc1cccc(F)c1)C(=O)N[C@@H](CCCN)C(=O)N1CCC[C@H]1C(=O)N[C@H](CCC(C)C)C(=O)N[C@@H](Cc1csc2ccccc12)C(=O)N[C@@H](Cc1ccccc1)C(N)=O [Compound 162, Ac-Mff-Orn-Pro-hle-Bta-Phe-NH2] (Ac-[Phe(3-F)][Orn]P[d(hLeu)][Bta]F-NH2) | 50 to 200
23 | CC(=O)N(C)[C@@H](Cc1ccccc1)C(=O)N[C@@H](CCCN)C(=O)N1CCC[C@H]1C(=O)N[C@H](CC1CCCCC1)C(=O)N[C@@H](Cc1csc2ccccc12)C(=O)N[C@@H](Cc1ccccc1)C(N)=O [Compound 165, Ac-NMF-Orn-Pro-cha-Bta-Phe-NH2] (Ac-[NMeF][Orn]P[dCha][Bta]F-NH2) | 50 to 200
24 | CC(=O)N[C@@H](Cc1ccccc1F)C(=O)N[C@@H](CCCN)C(=O)N1CCC[C@H]1C(=O)N[C@H](CC1CCCCC1)C(=O)N[C@@H](Cc1csc2ccccc12)C(=O)N[C@@H](Cc1ccccc1)C(N)=O [Compound 166, Ac-Off-Orn-Pro-cha-Bta-Phe-NH2] (Ac-[Phe(2-F)][Orn]P[dCha][Bta]F-NH2) | 20 to 50
25 | CC(=O)N[C@@H](Cc1ccccc1F)C(=O)N[C@@H](CCCN)C(=O)N1CCC[C@H]1C(=O)N[C@H](CCC(C)C)C(=O)N[C@@H](Cc1csc2ccccc12)C(=O)N[C@@H](Cc1ccccc1)C(N)=O [Compound 167, Ac-Off-Orn-Pro-hle-Bta-Phe-NH2] (Ac-[Phe(2-F)][Orn]P[d(hLeu)][Bta]F-NH2) | 20 to 50
